Reference: publication PMC10183817, “Inhibition of ATP synthase reverse activity restores energy homeostasis in mitochondrial pathologies” (The EMBO Journal, 2023)

Experiments:
[1] = molecular target: T1, mitochondrial ATP synthase (F1F0ATPase, Complex V, CV) (Mus musculus, UniProt P56480+Q03265); assay: acidification rate (Seahorse XF96), isolated heart mitochondria; format: biochemical; conditions: ATP 20 mM; pH 7.2; oligomycin-sensitive
T1 construct: gene Atp5f1a; native fully assembled complex in isolated mouse heart mitochondria (frozen/thawed, or separated by blue native gel); with ATP synthase F(1) complex subunit gamma, mitochondrial; ATP synthase F(1) complex subunit delta, mitochondrial; ATP synthase F(1) complex subunit epsilon, mitochondrial; ATP synthase peripheral stalk subunit OSCP, mitochondrial; ATP synthase peripheral stalk subunit b, mitochondrial; ATP synthase peripheral stalk subunit d, mitochondrial; ATP synthase peripheral stalk subunit F6, mitochondrial; ATP synthase F(0) complex subunit a; ATP synthase F(0) complex subunit 8; ATP synthase F(0) complex subunit C1, mitochondrial

[2] = molecular target: T1, mitochondrial ATP synthase (F1F0ATPase, Complex V, CV); assay: HyFS: acidification rate (Seahorse XF96), frozen heart mitochondria; format: biochemical; conditions: EPI 100 nM; ATP 20 mM; pH 7.2; MAS buffer; partial inhibition, ATP synthesis not impaired
[3] = molecular target: T2, purified bovine CV (Complex V, F-type ATP synthase) (Bos taurus, UniProt P00829+P19483); assay: in-gel ATP hydrolysis, blue native gel, purified CV; format: biochemical; conditions: monomer, tetramer and oligomers, also F1 subcomplex; independent of the ATPIF1 amount
T2 construct: gene ATP5F1A; native purification from bovine heart; monomer (LMNG), tetramer (GDN) and oligomer preparations; with ATP synthase F(1) complex subunit gamma, mitochondrial; ATP synthase F(1) complex subunit delta, mitochondrial; ATP synthase F(1) complex subunit epsilon, mitochondrial; ATP synthase peripheral stalk subunit OSCP, mitochondrial; ATP synthase peripheral stalk subunit b, mitochondrial; ATP synthase peripheral stalk subunit d, mitochondrial; ATP synthase peripheral stalk subunit F6, mitochondrial; ATP synthase F(0) complex subunit a; ATP synthase F(0) complex subunit 8; ATP synthase F(0) complex subunit C1, mitochondrial

[4] = molecular target: T2, purified bovine CV (Complex V, F-type ATP synthase); assay: competition with ATPIF1-GFP for CV tetramer, blue native gel fluorescence; conditions: indirect binding read-out; prevents ATPIF1-GFP binding, does not displace bound ATPIF1; room temperature

% inhibition [2]	Structure (SMILES)	acidification rate (Seahorse XF96), isolated heart mitochondria [1]	in-gel ATP hydrolysis, blue native gel, purified CV [3]	competition with ATPIF1-GFP for CV tetramer, blue native gel fluorescence [4]
	Nc1ncnc2c1ncn2[C@@H]1O[C@H](COP(=O)(O)OP(=O)(O)OP(=O)(O)O)[C@@H](O)[C@H]1O [ATP]	addition of ATP resulted in a sharp increase in proton release that was oligomycin sensitive		
~ 30%	Oc1cc(O)c2c(c1)O[C@@H](c1ccc(O)c(O)c1)[C@@H](O)C2 [EPI, (+)-Epicatechin]		We found that EPI inhibited ATP hydrolysis independently of the amount of ATPIF1	In both purified tetramers and isolated mitochondria, EPI prevented the binding of ATPIF1‐GFP
